Experimental data from patent US20230128194A1, “METHODS AND COMPOSITIONS TO ALTER HEPATIC GABA RELEASE TO TREAT OBESITY-RELATED CONDITIONS” (ARIZONA BOARD OF REGENTS ON BEHALF OF THE UNIVERSITY OF …, priority 2017, published 2023).

What was measured:
GABA-T = molecular target: T1, GABA-T (Mus musculus, UniProt P61922); test: liver slice GABA export with GABA-T inhibitor ex vivo; format: cell-based; settings: 5.3 mM
T1 construct: from tissue; host or cells: liver slices of lean, obese and obese Kir2.1-expressing mice
T1 sequence (P61922 29-500): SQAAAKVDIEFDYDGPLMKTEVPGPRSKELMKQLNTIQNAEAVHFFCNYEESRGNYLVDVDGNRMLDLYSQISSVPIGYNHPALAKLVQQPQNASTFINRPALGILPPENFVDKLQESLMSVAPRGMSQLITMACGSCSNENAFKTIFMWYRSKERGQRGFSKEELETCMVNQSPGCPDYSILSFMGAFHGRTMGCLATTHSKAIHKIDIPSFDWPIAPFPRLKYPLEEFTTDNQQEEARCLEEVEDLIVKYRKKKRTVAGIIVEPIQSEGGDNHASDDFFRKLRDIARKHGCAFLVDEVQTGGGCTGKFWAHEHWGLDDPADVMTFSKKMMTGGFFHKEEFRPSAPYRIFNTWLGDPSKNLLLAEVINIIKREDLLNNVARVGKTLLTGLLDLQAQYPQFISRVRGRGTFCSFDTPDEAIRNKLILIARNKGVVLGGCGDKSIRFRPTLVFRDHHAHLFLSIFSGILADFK
Description: Two liver slices were taken from each mouse.

diet-induced obese mice [1] = test: EOS in drinking water (3 g/L) in obese mice: glucose homeostasis, body mass; format: in vivo, mouse
Description: In a separate set of studies, an ITT was performed in obese mice to establish insulin resistance. Subsequently, EOS was provided ad libitum in the water (3 g/L) for 4 days. An OGTT and ITT were performed on days 3 and 4 of treatment, respectively. The water was then removed, and an ITT was performed 2 weeks later to establish the timing of restoration of insulin resistance after drug removal.
(§1) Oral glucose (2.5 g/kg; 0.1 mL/10 g body weight; Chem-Impex Int'l Inc., Wood Dale, Ill.) was given to 4 hour fasted individually housed mice. All glucose tolerance tests began at […] and glucose was measured in whole blood, collected from the tail vein, by glucometer (Manufacture #D2ASCCONKIT, Bayer, Leverkusen, Germany) at 0, 15, 30, 60, 90, and 120 minutes after glucose gavage. Blood for serum insulin (oral glucose stimulated insulin secretion; OGSIS) and glucose determination was collected from the tail vein 15 minutes following glucose administration.
(§2) Intraperitoneal insulin (0.5 U/kg; 0.1 mL/10 g body weight; Sigma Aldrich, St. Louis, Mo.) was given to 4 hour fasted individually housed mice. All insulin tolerance tests began at […] and glucose was measured in whole blood, collected from the tail vein, by glucometer (Manufacture #D2ASCCONKIT, Bayer, Leverkusen, Germany) at 0, 30, 60, 90, and 120 minutes after insulin injection.

diet-induced obese mice [2] = test: body composition by EchoMRI in EOS treated mice; format: in vivo, mouse; settings: 3 g/L in drinking water, day 7 vs day 0
Description: Body composition was assessed in diet-induced obese mice on day 0 and 7 days after continuous provision of EOS in the drinking water (3 g/L) using an EchoMRI 900 with A10 insert for mice. Calibration was performed daily and had the water stage set to on.

[3] = test system: high fat diet-induced obese mice; test: muscle cGMP content (ELISA); format: in vivo, mouse; settings: day 5
Description: On the fifth day of EOS or PBS treatment, mice were sacrificed and the quadricep and soleus tissues were collected and frozen on dry ice. Prior to analysis, frozen quadricep were powdered using a liquid nitrogen cooled mortar and pestle to obtain homogenous muscle samples. 15-20 mg of quadricep and the entire soleus tissue (6-12 mg) were homogenized in 200 μL of a 5% trichloroacetic acid solution. Following 15 minutes of centrifugation at 3,000×g at 4° C., supernatant was transferred to a fresh tube for analysis of muscle cGMP by enzyme-linked immunosorbent assay (ELISA; ADI-900-164, Enzo Life Sciences, Farmingdale, N.Y.).

lean mice = test: GABA-T inhibitors (8 mg/day oral gavage) in lean mice: glucose homeostasis; format: in vivo, mouse
Description: (§3) All animal studies were conducted using male wildtype C57BL/6J mice purchased from Jackson Laboratories or bred in-house (Bar Harbor, Me.). Mice were kept on a 14-hour light/10-hour dark schedule and housed 3-5 mice per cage until 1 week prior to study initiation, at which point animals were individually housed. Studies were conducted in lean chow fed mice (7013 NIH-31, Teklad WI, 3.1 kcal/g, 18% kcal from fat, 59% kcal from carbohydrate, 23% kcal from protein) at 12-16 weeks of age. Studies in diet-induced obese mice dosed intraperitoneally with GABA transaminase inhibitors, mice treated with ethanolamine-O-sulfate in their drinking water, and mice treated with GABA-T targeted or scramble control antisense oligonucleotides (ASO) were performed after 8-10 weeks on a high fat diet (TD 06414, Teklad WI, 5.1 kcal/g, 60.3% kcal from fat, 21.3% kcal from carbohydrate, 18.4% kcal from protein; 20-26 weeks of age). For ASO studies, mice were stratified by body weight and assigned to an injection treatment (control or GABA-T). Studies in obese vagotomy and sham mice were performed after 9 weeks of high fat diet feeding. Unless fasted, mice had ad libitum access to food and water. All studies were approved by The University of Arizona Institutional Animal Care and Use Committee.
(§4) Wildtype lean and obese mice were randomly divided into treatment groups and dosed daily with 8 mg of ethanolamine-O-sulfate (EOS; Sigma-Aldrich, St. Louis, Mo.), vigabatrin (United States Pharmacopeia, Rockville, Md.) or PBS. Obese sham and vagotomy mice were dosed daily with 8 mg of EOS. In all cases, basal bleeds were taken prior to initiation of an ITT. Lean mice received treatment by oral gavage (0.3 mL/mouse) while obese mice were treated by intraperitoneal injection (0.3 mL/mouse). Pre-treatment studies were conducted in the week immediately prior to beginning drug administration. Daily doses took place at 9 am each day and oral glucose tolerance tests (OGTT) and insulin tolerance tests (ITT) were performed on the third and fourth days of treatment in lean mice, respectively. In wildtype obese mice, OGTT and ITT were performed on the fourth day of treatment in separate cohorts. On the fifth day of treatment, 2DG clearance studies were performed. In sham/vagotomy mice, OGTT and ITT were performed on the fourth and fifth day of treatment, respectively. After a 2-week washout period without treatment injection, a basal bleed and bleed 15 minutes after an oral glucose gavage ([…]) to determine oral glucose stimulated insulin secretion were performed.
as §1, §2
(§5) Within 2 hours of collection, blood was left to clot at room temperature for 20 minutes. Thereafter, the blood was centrifuged at 3,000×g for 30 minutes at 4° C. and serum was collected. Serum was stored at −80° C. until metabolite and hormone analyses. A colorimetric assay was used to analyze serum glucose (Cat. #G7519, Pointe Scientific Inc., Canton Mich.). Serum insulin was analyzed by enzyme-linked immunosorbent assay (ELISA; Cat. #80-INSMSU-E01,E10, Alpco, Salem, N.H.). […]

[4] = test system: high fat diet-induced obese mice; test: GABA-T inhibitors (8 mg/day IP) in HFD-induced obese mice: body weight, serum insulin/glucose/glucagon, OGTT, ITT; format: in vivo, mouse
Description: as §3, §4, §1, §2, §5

[5] = 8 mg/day IP, four days, relative to pre-treatment

NCCOS(=O)(=O)O [EOS, ethanolamine-O-sulfate]
GABA export (GABA-T; obese Kir2.1 expressing liver slices): decreased
GABA export (GABA-T; obese control liver slices): decreased
response after withdrawal (diet-induced obese mice [1]; 2 weeks without EOS in the drinking water): washed out
body mass (diet-induced obese mice [1]; diet-induced obese mice, 3 g/L in drinking water, 7 weeks): dramatically decreased
measures of glucose homeostasis (diet-induced obese mice [1]; obese mice, 3 g/L in drinking water, 4 days): similarly improved
decrease of fat mass (diet-induced obese mice [2]): 16.27%
decrease of lean mass (diet-induced obese mice [2]): 6.15%
decrease of total body mass (diet-induced obese mice [2]): 10%
cGMP in quad [3]: no effect
increase of cGMP in the soleus [3]: 59%
serum glucose (lean mice): decreased
glucose tolerance (lean mice; 8 mg/day): no effect
insulin sensitivity (lean mice; 8 mg/day): no effect
serum insulin concentrations (lean mice; 8 mg/day): no effect
glucose homeostasis (lean mice; acute): does not alter
glucose:insulin ratio [4, 5]: increased
serum glucose [4, 5]: decreased
serum insulin [4, 5]: decreased
body weight ([4]; 8 mg/day IP, through 5 days, vs saline injected mice): remained similar
serum glucagon ([4]; 5 days, relative to control mice): decreased
glucose stimulated serum insulin ([4]; treatment day 4, relative to pre-treatment): tended to be decreased
glucose stimulated serum insulin after washout ([4]; two-weeks washout): markedly increased
serum insulin and glucose:insulin ratio after washout ([4]; two-weeks washout): return of serum insulin and the glucose:insulin ratio to pre-treatment levels
insulin sensitivity assessed by insulin tolerance test (ITT) ([4]; within 4 days of initiating treatment): improved
